Results taken from US7094869B2, “Low molecular weight peptidomimetic growth hormone secretagogues” (Genentech, Inc., priority 1994, dated 2006).
Like-named read-outs stand apart in the source and are kept apart here. Starred links: 1 amine or outer side, 2 acyl side, 3 side chain; linkers in the order of their positions; H or OH if unused. Non-standard residues stand in square brackets, D forms with d. Residues, ends and D or L forms follow the SMILES beside them. ξ: configuration not given here. *: point of attachment. dNMe2Nal = CN[C@H](Cc1ccc2ccccc2c1)C(=O)O; dPhe(4-Cl) = N[C@H](Cc1ccc(Cl)cc1)C(=O)O; 2Nal = N[C@@H](Cc1ccc2ccccc2c1)C(=O)O; d2Nal = N[C@H](Cc1ccc2ccccc2c1)C(=O)O; ξNMe2Nal = CNC(Cc1ccc2ccccc2c1)C(=O)O; d(hPhe) = N[C@H](CCc1ccccc1)C(=O)O; ξ2Nal = NC(Cc1ccc2ccccc2c1)C(=O)O; NMeGABA = CN(CCCC(=O)[*:2])[*:1]; hPhe = N[C@@H](CCc1ccccc1)C(=O)O; Phe(ol) = N[C@H](CO)Cc1ccccc1; Nle = CCCC[C@H](N)C(=O)O; Inp = O=C(O)C1CCNCC1; ξK = NCCCCC(N)C(=O)O; NHtBu = CC(C)(C)N*; Ava = NCCCCC(=O)O; GABA = NCCCC(=O)O; βAla = NCCC(=O)O

Key:
[1] = test system: growth hormone secretion; assay: GHRP induced growth hormone secretion, intravenous administration (Rat IV); type: in vivo; conditions: iv injection, serum GH 10 min after injection
Description: Immature weanling female Sprague Dawley rats were purchased from Charles River Labs (Portage, […].) and group housed with water and food available ad libitum. When the rats were 24-30 days old (weighing 50-90 g) they were anesthetized with pentobarbitone (4 mg in 0.5 ml, approximately 60 mg/kg) given by intraperitoneal injection. The rats were then placed briefly on a heated pad, to distend their tail veins, and given an intravenous tail vein injection of the peptides 20 minutes after receiving the anesthetic. The intravenous injection was of 0.1 ml using a 1 ml syringe. The injections contained graded doses of peptides or the vehicle (vehicle for all peptides given intravenously was a buffer of 20 mM sodium acetate, 45 g/l mannitol, pH 5.0). Ten minutes after the intravenous injection blood was taken by cardiac puncture, using a 3 ml syringe, and the rats were then sacrificed.
The blood was then clotted on ice, centrifuged, serum decanted and frozen for subsequent analysis using the rat GH ELISA described elsewhere in the application. For the rat GH ELISA the serum was diluted 1:50 or 1:250, depending on the expected serum GH concentrations achieved, and assayed in duplicate.

[2] = biological target: rat pituitary cells (Rattus norvegicus, UniProt O08725); conditions: read-out: PIT Cell EC50, GH release, 15 min incubation
rat pituitary cells, sequence (O08725 whole entry): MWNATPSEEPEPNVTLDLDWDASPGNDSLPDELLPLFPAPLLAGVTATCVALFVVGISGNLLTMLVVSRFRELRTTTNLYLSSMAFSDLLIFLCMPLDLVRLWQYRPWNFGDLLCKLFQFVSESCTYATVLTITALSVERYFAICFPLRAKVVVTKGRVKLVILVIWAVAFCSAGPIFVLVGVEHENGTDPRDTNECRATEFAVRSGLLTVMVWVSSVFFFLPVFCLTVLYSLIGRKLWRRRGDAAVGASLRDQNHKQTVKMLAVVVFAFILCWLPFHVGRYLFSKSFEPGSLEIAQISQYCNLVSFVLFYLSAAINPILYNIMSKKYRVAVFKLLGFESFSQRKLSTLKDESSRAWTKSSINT
In short: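 Primary rat anterior pituitary cells, cultured three days in DME low glucose/10% FBS, were washed, pre-incubated twice for 15 min, then challenged 15 min with test compounds (DMSO ≤0.1%) at 37 °C. Released GH was measured by two-site ELISA; EC50 came from 4-parameter fits, mean of three to four independent determinations.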

[3] = Table III, formula IV compounds
[4] = Table IV, formula III compounds

Structure (SMILES) | RAT IV ED50 ([1]; Table III) | EC50 [2, 3] | RAT IV ED50 ([1]; Table IV) | EC50 [2, 4] | further results
NCCCCC(=O)N[C@H](Cc1ccc2ccccc2c1)C(=O)N[C@H](Cc1ccc2ccccc2c1)C(=O)N[C@@H](Cc1ccccc1)C(=O)N[C@@H](CCCCN)C(N)=O [(Ava) b b F K amide] (H-[Ava][d2Nal][d2Nal]FK-NH2) | 2.6 µg | 2.8 nM | – | – | –
CN(C(=O)[C@@H](Cc1ccc2ccccc2c1)NC(=O)C1CCNCC1)[C@H](Cc1ccc2ccccc2c1)C(=O)N[C@@H](Cc1ccccc1)C(N)=O [(inip) b nmb F amide] (H-[Inp][d2Nal][dNMe2Nal]F-NH2) | – | – | 5 µg | 1 nM | –
CCCC[C@H](NC(=O)[C@@H](Cc1ccc2ccccc2c1)NC(=O)[C@@H](Cc1ccc2ccccc2c1)NC(=O)C1CCNCC1)C(N)=O [(inip) b b nL amide] (H-[Inp][d2Nal][d2Nal][Nle]-NH2) | – | – | 3.3 µg | 4.3 nM | –
NCCCNC(=O)[C@H](Cc1ccc2ccccc2c1)NC(=O)[C@H](Cc1ccc2ccccc2c1)NC(=O)[C@H](N)Cc1ccc2ccccc2c1 [b B B ram, DβNal-βNal-βNal-[N-(3-aminopropyl)] amide] | – | – | – | – | RAT IV ED50 ([1]; Table VI): 100 µg; EC50 ([2]; Table VI, retroinverso compounds of formula V): 15.2 nM
CN(CCc1ccc2ccccc2c1)C(=O)[C@@H](Cc1ccc2ccccc2c1)NC(=O)C1CCNCC1 [(inip) b men, (inip)-DβNal-[N-methyl, N-1-{2-(2-naphthyl)ethyl}] amide] | – | – | – | – | RAT IV ED50 ([1]; Table V): 500 µg; EC50 ([2]; Table V, formula II compounds): 12 nM
NC(=O)[C@H](Cc1ccc2ccccc2c1)NC(=O)[C@@H](Cc1ccc2ccccc2c1)NC(=O)[C@@H](Cc1ccc2ccccc2c1)NC(=O)C1CCNCC1 [(inip) b b B amide] (H-[Inp][d2Nal][d2Nal][2Nal]-NH2) | – | – | 50 µg | 0.1 nM | –
O=C(N[C@H](Cc1ccc2ccccc2c1)C(=O)N[C@H](Cc1ccc2ccccc2c1)C(=O)N[C@@H](Cc1ccc(O)cc1)C(=O)O)C1CCNCC1 [(inip) b b Y acid] (H-[Inp][d2Nal][d2Nal]Y-OH) | – | – | 10 µg | 5 nM | –
CNC(=O)[C@H](Cc1ccccc1)NC(=O)[C@@H](Cc1ccc2ccccc2c1)NC(=O)[C@@H](Cc1ccc2ccccc2c1)NC(=O)C1CCNCC1 [(inip) b b F mam] (H-[Inp][d2Nal][d2Nal]F-NHMe) | 2 µg | 2 nM | – | – | –
NCCCC[C@H](NC(=O)[C@H](Cc1ccccc1)NC(=O)[C@@H](Cc1c[nH]c2ccccc12)NC(=O)[C@@H](Cc1c[nH]c2ccccc12)NC(=O)[C@@H](N)Cc1c[nH]cn1)C(N)=O [H w w F K amide] (H-H[dW][dW]FK-NH2) | 50 µg | 25.8 nM | – | – | –
O=C(N[C@H](Cc1ccc2ccccc2c1)C(=O)N[C@H](Cc1ccc2ccccc2c1)C(=O)N1CCNCC1)C1CCNCC1 [(inip) b b ppz] | – | – | 10 µg | 10 nM | –
NCCCNC(=O)[C@@H](Cc1ccc2ccccc2c1)NC(=O)[C@@H](Cc1ccc2ccccc2c1)NC(=O)C1CCNCC1 [(inip) b b ram] | – | – | 5 µg | 16 nM | –
CN(C(=O)C(Cc1ccc2ccccc2c1)NC(=O)C1CCNCC1)[C@H](Cc1ccc2ccccc2c1)C(=O)N[C@@H](Cc1ccccc1)C(=O)NC(CCCCN)C(N)=O (stereo partly drawn) [(inip) b nmb F K amide, (inip)-DβNal-(N-Me-DβNal)-Phe-Lys-amide] (H-[Inp][ξ2Nal][dNMe2Nal]F[ξK]-NH2) | 1 µg | 0.2 nM | – | – | –
CN(C(=O)C1CCNCC1)C(Cc1ccc2ccccc2c1)C(=O)N[C@H](Cc1c[nH]c2ccccc12)C(=O)N[C@@H](Cc1ccccc1)C(=O)NC(CCCCN)C(N)=O (stereo partly drawn) [(inip) nmb w F K amide, (inip)-(N-Me-DβNal)-DTrp-Phe-Lys-amide] (H-[Inp][ξNMe2Nal][dW]F[ξK]-NH2) | 0.2 µg | 0.2 nM | – | – | –
C[C@H](N)C(=O)N[C@H](Cc1ccc2ccccc2c1)C(=O)N[C@H](Cc1ccc2ccccc2c1)C(=O)N[C@@H](Cc1ccccc1)C(=O)N[C@@H](CCCCN)C(N)=O [A b b F K amide] (H-A[d2Nal][d2Nal]FK-NH2) | 10 µg | 2.1 nM | – | – | –
NC(=O)CCNC(=O)[C@H](Cc1ccccc1)NC(=O)[C@@H](Cc1ccc2ccccc2c1)NC(=O)[C@@H](Cc1ccc2ccccc2c1)NC(=O)C1CCNCC1 [(inip) b b F bA amide] (H-[Inp][d2Nal][d2Nal]F[βAla]-NH2) | 2 µg | 0.2 nM | – | – | –
NCCCCC(=O)N[C@H](Cc1ccc2ccccc2c1)C(=O)N[C@H](Cc1ccc2ccccc2c1)C(=O)N[C@@H](CCc1ccccc1)C(=O)N[C@@H](CCCCN)C(N)=O [(Ava) b b hF K amide] (H-[Ava][d2Nal][d2Nal][hPhe]K-NH2) | 50 µg | 5 nM | – | – | –

Structure (SMILES) | RAT IV ED50 ([1]; Table III) | EC50 [2, 3] | RAT IV ED50 ([1]; Table IV) | EC50 [2, 4] | further results
CN(C(=O)C1CCNCC1)[C@H](Cc1ccc2ccccc2c1)C(=O)N[C@H](Cc1ccc2ccccc2c1)C(=O)N[C@@H](Cc1ccccc1)C(N)=O [(inip) nmb b F amide] (H-[Inp][dNMe2Nal][d2Nal]F-NH2) | – | – | 5 µg | 0.5 nM | –
O=C(N[C@H](Cc1ccc2ccccc2c1)C(=O)NCc1ccc2ccccc2c1)C1CCNCC1 [(inip) b man, (inip)-DβNal-(2-aminomethylnaphthyl) amide] | – | – | – | – | RAT IV ED50 ([1]; Table V): 500 µg; EC50 ([2]; Table V, formula II compounds): 9 nM
NCCCC[C@H](NC(=O)[C@H](Cc1ccccc1)NC(=O)[C@@H](Cc1c[nH]c2ccccc12)NC(=O)[C@@H](Cc1ccc2ccccc2c1)NC(=O)CN)C(N)=O [G b w F K amide] (H-G[d2Nal][dW]FK-NH2) | 4.8 µg | 0.8 nM | – | – | –
NCCCC[C@H](NC(=O)[C@H](Cc1ccccc1)NC(=O)[C@@H](Cc1ccc2ccccc2c1)NC(=O)[C@@H](Cc1ccc2ccccc2c1)NC(=O)CN)C(N)=O [G b b F K amide] (H-G[d2Nal][d2Nal]FK-NH2) | 100 µg | 14.9 nM | – | – | –
NCCCCNC(=O)[C@@H](Cc1ccc2ccccc2c1)NC(=O)[C@@H](Cc1ccc2ccccc2c1)NC(=O)C1CCNCC1 [(inip) b b bam, (inip)-DβNal-DβNal-[N-(4-aminobutyl)] amide] | – | – | 3.3 µg | 18.5 nM | –
O=C(N[C@H](Cc1ccc2ccccc2c1)C(=O)N[C@H](Cc1ccc2ccccc2c1)C(=O)N[C@H](CO)Cc1ccccc1)C1CCNCC1 [(inip) b b Pol, (inip)-DβNal-DβNal-(L-Phenylalanol)] (H-[Inp][d2Nal][d2Nal][Phe(ol)]) | – | – | 5 µg | 0.2 nM | –
NC(=O)CCNC(=O)[C@@H](Cc1ccc2ccccc2c1)NC(=O)[C@@H](Cc1ccc2ccccc2c1)NC(=O)C1CCNCC1 [(inip) b b bA amide] (H-[Inp][d2Nal][d2Nal][βAla]-NH2) | – | – | 10 µg | 10 nM | –
NCCCCC(=O)N[C@H](Cc1ccc2ccccc2c1)C(=O)N[C@H](Cc1ccc2ccccc2c1)C(=O)N[C@@H](Cc1ccc2ccccc2c1)C(=O)N[C@@H](CCCCN)C(N)=O [(Ava) b b B K amide] (H-[Ava][d2Nal][d2Nal][2Nal]K-NH2) | 50 µg | 0.7 nM | – | – | –
NC(=O)[C@H](Cc1ccccc1)NC(=O)[C@@H](Cc1ccc(Cl)cc1)NC(=O)[C@@H](Cc1ccc2ccccc2c1)NC(=O)C1CCNCC1 [(inip) b chf F amide] (H-[Inp][d2Nal][dPhe(4-Cl)]F-NH2) | – | – | 5 µg | 2.7 nM | –
CC(C)(C)NC(=O)[C@H](Cc1ccccc1)NC(=O)[C@@H](Cc1ccc2ccccc2c1)NC(=O)[C@@H](Cc1ccc2ccccc2c1)NC(=O)C1CCNCC1 [(inip) b b F tbm] (H-[Inp][d2Nal][d2Nal]F-NHtBu) | 10 µg | 10 nM | – | – | –
NCCCCC(=O)N[C@H](Cc1ccc2ccccc2c1)C(=O)N[C@H](Cc1c[nH]c2ccccc12)C(=O)N[C@@H](Cc1ccccc1)C(=O)N[C@@H](CCCCN)C(N)=O [(Ava) b w F K amide] (H-[Ava][d2Nal][dW]FK-NH2) | 11.8 µg | 4.6 nM | – | – | –
CN(C(=O)CCCN)[C@H](Cc1ccc2ccccc2c1)C(=O)N[C@H](Cc1ccc2ccccc2c1)C(=O)N[C@@H](Cc1ccccc1)C(N)=O [(Ab) nmb b F amide] (H-[GABA][dNMe2Nal][d2Nal]F-NH2) | – | – | 20 µg | 0.2 nM | –
NC(=O)[C@H](Cc1ccccc1)NC(=O)[C@@H](CCc1ccccc1)NC(=O)[C@@H](Cc1ccc2ccccc2c1)NC(=O)C1CCNCC1 [(inip) b hf F amide] (H-[Inp][d2Nal][d(hPhe)]F-NH2) | – | – | 10 µg | 14 nM | –
CN(C(=O)[C@@H](Cc1ccc2ccccc2c1)NC(=O)CCCCN)[C@H](Cc1ccc2ccccc2c1)C(=O)N[C@@H](Cc1ccccc1)C(=O)N[C@@H](CCCCN)C(N)=O [(Ava) b nmb F K amide] (H-[Ava][d2Nal][dNMe2Nal]FK-NH2) | 100 µg | 3.8 nM | – | – | –
CNCCCC(=O)NC(Cc1ccc2ccccc2c1)C(=O)N[C@H](Cc1ccc2ccccc2c1)C(=O)N[C@@H](Cc1ccccc1)C(=O)NC(CCCCN)C(N)=O (stereo partly drawn) [(mab) b b F K amide, [4-(N-methylamino)butanoyl]-DβNal-DβNal-Phe-Lys-amide] (NMeGABA-[ξ2Nal][d2Nal]F[ξK]-NH2) | 0.7 µg | 1.4 nM | – | – | –
